In patent US20180256537A1, “METHODS FOR SURVIVAL AND REJUVENATION OF DERMAL FIBROBLASTS USING PKC ACTIVATORS” (priority 2015, published 2018):
pEC50, pKi: −log10 of the molar value. Read-outs that look alike come from different tables or passages of the source.

Assays:
[1] = tested on: human skin fibroblasts; assay: Protection of human skin fibroblasts under serum starvation (microscopy); format: cell-based; conditions: for viability and cellular integrity, with or without Erk inhibitor: serum deprived culture 5 days
Experimental: Skin fibroblast samples AG09555 (isolated and banked from a healthy person) and AG04560 (isolated and banked from a healthy person; Aging Cell Culture Repository of the National Institute on Aging) were obtained from the Coriell Institute for Medical Research (Camden, N.J.). Fresh fibroblasts were isolated from a skin punch biopsy (2-3 mm, upper arm) from a healthy subject (0078F45). The skin biopsy was conducted by qualified personnel under the supervision of Dr. Shirley Neitch with IRB approval of Marshall University (Huntington, W. Va.). All subjects signed informed consent forms under Marshal University rules and regulations. The method for isolating fibroblasts from skin biopsies was similar to the method previously described (Zhao et al, 2002; Khan and Alkon, 2006).
(§1) Primary skin fibroblasts isolated from skin biopsies were maintained in Dulbecco's Modified Eagle Medium (DMEM) with low glucose (Invitrogen, Grand Island, N.Y.) supplemented with 10% FBS in 6-well culture dishes (37° C., 5% CO2, 90% humidity) until the cells reached 90-100% confluence. Cells were cultured in completely serum-free medium to simulate stress conditions. After culture in serum-free media for 24 hours, cells were treated with vehicle, 0.3 nM bryostatin1, or 5 nM picolog. […] Nanomolar concentrations of picolog were previously found to be effective for cellular activation (Khan et al, 2009). The condition of the cultured skin fibroblasts was monitored with an inverted cell culture microscope (Westover Digital AMID Model 2000, Westover Scientific, Bothell, Wash.), controlled by a computer and images were captured with image acquisition software (Micron 2.0.0, Westover Scientific).

[2] = tested on: Erk1/2; assay: Immunoblot analysis of Erk activation in serum-deprived fibroblasts; format: cell-based, human
Experimental: as §1
(§2) Protein lysates (20 μg of protein each) were boiled in 2× Laemmli buffer for 10 min and separated using a 10% […] Tris-Glycine gel (or 4-20% gradient Tris-Glycine gel for caspase-8). […] Signal intensities of the images were recorded in the ImageQuant RT-ECL (GE Life Sciences, Piscataway, N.J.) and densitometric quantification was performed using the IMAL software (Blanchette Rockefeller Neurosciences Institute, Morgantown, W. Va.). […]

[3] = tested on: caspase-8; assay: Immunoblot analysis of caspase-8 expression in dermal fibroblasts; format: cell-based, human
Experimental: as §1, §2

[4] = tested on: human skin equivalents (HSEs); assay: Cell survival within human skin equivalents (HSEs); format: cell-based
Experimental: The Clonetics™ keratinocyte system containing normal adult human epidermal keratinocytes (NHEK) was used as source of epidermal keratinocytes (Lonza, Walkersville, Md.). Human adult epidermal keratinocyte cells were cultured in keratinocyte basal medium supplemented with appropriate growth factors (Clonetics KGM-Gold™ BulletKit™ [cat#00192060] contains one 500 ml bottle of keratinocyte basal medium-gold supplemented with bovine pituitary extract (BPE), 2 ml; hEGF, 0.5 ml; insulin, 0.5 ml; hydrocortisone, 0.5 ml; transferrin, 0.5 ml; epinephrine, 0.25 ml; GA-1000, 0.5 ml) in T25 culture flasks in an incubator at 37° C., 5% CO2, and 90% humidity. The growth medium was changed the day after seeding and every other day thereafter. Keratinocytes were used up to 18 population doublings. All cell preparations tested negative for mycoplasma, bacteria, yeast, and fungi. The condition of the skin keratinocytes was monitored with an inverted cell culture microscope (Westover Digital AMID Model 2000, Westover Scientific), controlled by a computer and images were captured using image acquisition software (Micron 2.0.0, Westover Scientific).
HSEs have been used commercially as clinical skin substitutes (Orcel® from FortiCell Bioscience, Englewood Cliffs, N.J.; FDA approved in 2001/2008; Apligraf® from Genzyme Tissue Repair Corporation, Cambridge, Mass., FDA approved in 2007) and as in vitro models for skin biochemical tests and toxicity tests (Mertsching et al, 2008; Zhang and Michniak-Kohn, 2012). We engineered an HSE composed of both epidermal and dermal layers; keratinocytes and fibroblasts were utilized to prepare the bilayer structures (Shevchenko et al, 2010). Dermal fibroblasts were cultured on a 6-well collagen-coated surface (Biocoat Cell Environment, Becton Dickinson, Bedford, UK) or BD BIOCOAT™ plates (BD Biosciences, San Jose, Calif.). Fibroblast cells were maintained in DMEM with low glucose (Invitrogen) supplemented with 10% FBS, and were grown to 100% confluence. Culture medium was removed and the cells were washed three times with DMEM (without serum) to remove all growth factors. Previously cultured epidermal keratinocytes were added to the fibroblasts as the second layer (FIG. 1). […] The condition of the HSEs was monitored with an inverted cell culture microscope (Westover Digital AMID Model 2000, Westover Scientific), controlled by a computer and images were captured via image acquisition software (Micron 2.0.0, Westover Scientific).

[5] = tested on: matrix metalloproteins 1, 3, 9, 10 and 11 (MMP's); conditions: cited from earlier work
[6] = cited from earlier work
[7] = biological target: PKC; conditions: Table 1, bryologs; read-out: PKC Affin; cited from earlier work
[8] = biological target: protein kinase C; conditions: (−)-enantiomer; cited from earlier work
[9] = tested on: squamous cell carcinoma and melanoma; conditions: used topically; cited from earlier work
[10] = tested on: PKC; conditions: cited from earlier work
[11] = tested on: NCI 60 cell line screen; conditions: cited from earlier work
[12] = tested on: Erk1/2; conditions: RasGRP3-dependent manner; cited from earlier work
[13] = cited from earlier work; remark: listed apart in the source
[14] = tested on: human skin fibroblasts; assay: Cell viability test by MTT assay; format: cell-based; conditions: 5 nM, serum starvation 15 days, versus untreated cells
Experimental: as §1
Cell viability assay was conducted by measuring 3-(4,5-dimethylthiazol-2-yl)-2,5-diphenyltetrazolium (MTT) bromide dye absorbance. After treatment, cells were labeled with MTT and dissolved by adding SDS-HCl solution to each well and mixing thoroughly with a pipette tip. Absorbance was read at 570 nm using a microplate reader. Data were presented in terms of relative cell viability.

[15] = biological target: PKC; conditions: [3H] phorbol dibutyrate competition; cited from earlier work

CCC/C=C/C=C/C(=O)O[C@H]1/C(=C/C(=O)OC)C[C@H]2C[C@H]([C@@H](C)O)OC(=O)C[C@H](O)C[C@@H]3C[C@H](OC(C)=O)C(C)(C)C(O)(C[C@@H]4C/C(=C/C(=O)OC)C[C@H](/C=C/C(C)(C)[C@]1(O)O2)O4)O3 [Bryostatin-1]
cellular integrity of freshly isolated fibroblasts ([1]; 0.3 nM, 5 days serum-free, 6-well plates): healthy and appear to be normal | percentage of viable fibroblasts ([1]; 0.3 nM, 5 days serum-free, treated versus control group): lower percentage of viable fibroblast in the control group | loss of dermal fibroblast cells ([1]; 0.3 nM, 15 days serum free culture): no significant loss of dermal fibroblast cells | structural integrity and number of viable cells ([1]; 0.3 nM, 35 days serum free culture, versus control group): greater structural integrity and a higher number of live, viable cells | cellular integrity of collagen matrix supported fibroblasts ([1]; 25 days serum-starved): maintains the cellular integrity | viability and cellular integrity, with or without Erk inhibitor [1]: showed the greatest viability and good cellular integrity | survival of banked skin fibroblasts ([1]; sub-nanomolar amounts, 20 days serum starved): prevented the death of human skin fibroblasts | activation of Erk1/2 (p-Erk/Erk) ([2]; 0.3 nM, serum-free conditions): induced activation of Erk1/2 | caspase-8 expression levels, time course ([3]; after 3 days of treatment): greatest decrease | caspase-8 expression levels in cell lysate ([3]; treated versus control fibroblasts): reduced expression levels of caspase-8 | protective effect in HSEs over time ([4]; 9 days versus 12 days in culture): decreases as a function of time | fibroblast survival and viability in HSEs versus untreated ([4]; single dose and two dose treated HSEs): significantly greater | fibroblast cell death in HSEs ([4]; single treatment 0.3 nM, versus untreated HSEs): showed fewer dead fibroblast cells overall | survival of fibroblast cells in HSEs, two doses versus single dose ([4]; two doses (0.3 nm) versus single 0.3 nM dose): greater than fibroblasts in HSEs receiving a single 0.3 nM dose | production of matrix metalloproteins 1, 3, 9, 10 and 11 [5]: inhibits the production | toxicity ([6]; 20 μg/week): no toxicity | adverse effect ([6]; more than 35 μg/week): may be associated with muscle pain

CCCCCCCC(=O)O[C@H]1/C(=C/C(=O)OC)C[C@H]2C[C@H](CO)OC(=O)C[C@H](O)C[C@@H]3CCC[C@H](C[C@@H]4CCO[C@H](/C=C/C(C)(C)[C@]1(O)O2)O4)O3 [Analog 1]
pKi [7]: 9.60

COc1cccc(-c2cc(=O)c3ccccc3o2)c1N [PD98059]
viability and cellular integrity, with or without Erk inhibitor [1]: lowered the cell protective effects of bryostatin-1 | effect on bryostatin-1 induced Erk activation ([2]; PD98059 30 μM with bryostatin-1): significantly blocked

Octylindolactam V
pEC50 [8]: 7.54

C/C=C(/C)C(=O)O[C@H]1C(C)=C[C@]23C(=O)[C@@H](C=C(CO)[C@@H](O)[C@]12O)[C@H]1[C@@H](C[C@H]3C)C1(C)C [Ingenol-3-angelate]
antitumor activity [9]: exhibits antitumor activity

CCC1CC1CC1CC1CC1CC1CC1CC1CC1CC1CC1CC1CCC(=O)OC (centres unmarked) [DHA-CP6, cyclopropanated docosahexaenoic acid methyl ester]
effective concentration [10]: 10 nM

CC1=CC[C@H](C)C(C)(C)[C@@H]1/C=C/C(C)=C/CC[C@@]1(CO)[C@H](CCCO)/C(=C(/C)C=O)CC[C@]1(C)O [Iripallidal]
GI50 (concentration required to inhibit growth by 50%) [11]: micromolar to nanomolar range | phosphorylation of Erk1/2 [12]: induces phosphorylation of Erk1/2

CCC/C=C/C=C/C(=O)O[C@H]1/C(=C/C(=O)OC)C[C@H]2C[C@H]([C@@H](C)O)OC(=O)C[C@H](O)C[C@@H]3C[C@H](OC(C)=O)C(C)(C)[C@](O)(C[C@@H]4C/C(=C/C(=O)OC)C[C@H](/C=C/C(C)(C)[C@]1(O)O2)O4)O3 [Bryostatin-1]
time detectable in the blood ([13]; after a single injection): 14 days | half-life (t1/2) in the blood stream ([13]; blood): 1 h | crossing of the blood-brain barrier ([13]; in vivo): crosses the blood-brain barrier | share of initial dose in the blood ([13]; intravenous injection, at 100 hrs): 1%

CCCCCCCC(=O)O[C@H]1/C(=C/C(=O)OC)CC2C[C@H](CO)OC(=O)C[C@H](O)C[C@@H]3CCC[C@H](C[C@@H]4CCO[C@H](/C=C/C(C)(C)[C@]1(O)O2)O4)O3 [picolog]
cell survival of human skin fibroblasts ([1]; 5 nM, serum free, 15 days): increased cell survival | relative cell viability (MTT) [14]: increased the relative viability of fibroblast cells

CC1=C[C@]23C(=O)[C@@H](C=C(COC(=O)c4ccccc4)[C@@H](O)[C@]2(O)[C@H]1OC(=O)c1ccccc1)[C@H]1[C@@H](C[C@H]3C)C1(C)C [Ingenol 3,20-dibenzoate]
pKi [15]: 6.62
